Source: ChEMBL document CHEMBL4622972 (J Med Chem, 2020)

Assays:
[1] = 1-octanol-aqueous buffer distribution coefficient, log D of the compound at pH 7.4; assay type: physicochemical
[2] = Apparent permeability across basolateral to apical side in human Caco2 cells at pH 7.4; assay type: ADME, cell-based; conditions: Caco-2, pH 7.4
[3] = Apparent permeability across apical to basolateral side in human Caco2 cells at pH 7.4; assay type: ADME, cell-based; conditions: Caco-2, pH 7.4
[4] = Drug absorption in po dosed rat; assay type: ADME, organism-based; conditions: in vivo
[5] = Apparent permeability in human jejunum; assay type: ADME, tissue-based
[6] = Apparent permeability in rat jejunum; assay type: ADME, tissue-based
[7] = Drug absorption in po dosed hamster; assay type: ADME, organism-based; conditions: cricetinae, in vivo
[8] = Oral bioavailability in Harlan-Han Wistar rat; assay type: ADME, organism-based; conditions: in vivo
[9] = Volume of distribution at steady state in iv dosed dog; assay type: ADME, organism-based, Canis lupus familiaris; conditions: in vivo, read-out: Vdss
[10] = Drug absorption in po dosed mouse; assay type: ADME, organism-based; conditions: in vivo
[11] = Oral bioavailability in dog; assay type: ADME, organism-based, Canis lupus familiaris; conditions: in vivo
[12] = Volume of distribution at steady state in iv dosed Harlan-Han Wistar rat; assay type: ADME, organism-based; conditions: in vivo, read-out: Vdss

Compound	logD [1]	Papp A→B [3]	further results
Cc1ccc2[nH]c(C(=O)N[C@H]3CN(S(=O)(=O)c4ccccc4)C[C@@H]3C(=O)NC[C@@H]3CCCN3C)cc2c1	2.3	0.24 ×10⁻⁶ cm/s	Papp B→A [2]: 19.3 ×10⁻⁶ cm/s
Cc1ccc2[nH]c(C(=O)N[C@H]3CN(S(=O)(=O)c4ccnc(C)c4)C[C@@H]3C(=O)NCCN(C)C)cc2c1	1.7	–	–
Cc1ccc2[nH]c(C(=O)N[C@H]3CN(S(=O)(=O)c4cnccn4)C[C@@H]3C(=O)NCCN(C)C)cc2c1	1	–	–
Cc1ccc2[nH]c(C(=O)N[C@H]3CN(S(=O)(=O)c4ccccc4)C[C@@H]3C(=O)NCCN(C)C)cc2c1	2.1	–	–
Cc1ccc2[nH]c(C(=O)N[C@H]3CCN(S(=O)(=O)c4ccccc4Cl)C[C@@H]3C(=O)N[C@H]3CCCNC3)cc2c1	1.9	< 0.01 ×10⁻⁶ cm/s	Papp B→A [2]: 1.4 ×10⁻⁶ cm/s
O=C(N[C@H]1CN(S(=O)(=O)c2ccccc2)C[C@@H]1C(=O)N[C@H]1CCCNC1)c1cc(-c2ccccc2Cl)on1	1.9	0.31 ×10⁻⁶ cm/s	Drug absorption [4]: Not Active; Papp [5]: < 1 ×10⁻⁶ cm/s; Papp [6]: < 1 ×10⁻⁶ cm/s; Drug absorption [7]: Not Active; bioavailability [8]: < 1%; Vd [9]: 6.6 L/kg; Drug absorption [10]: Not Active; bioavailability [11]: 40%; Vd [12]: 5.5 L/kg
Cc1ccc2[nH]c(C(=O)N[C@H]3CN(S(=O)(=O)c4ccccc4)C[C@@H]3C(=O)N[C@H]3CCCN(C)C3)cc2c1	2.7	0.3 ×10⁻⁶ cm/s	Papp B→A [2]: 16.3 ×10⁻⁶ cm/s
Cc1ccc2[nH]c(C(=O)N[C@H]3Cc4ccccc4[C@@H]3C(=O)NCCN(C)C)cc2c1	2.4	–	–
Cc1ccc2[nH]c(C(=O)N[C@H]3CN(S(=O)(=O)c4ccccc4)C[C@@H]3C(=O)N[C@@H]3CCCN(C)C3)cc2c1	2.7	0.76 ×10⁻⁶ cm/s	Papp B→A [2]: 22.8 ×10⁻⁶ cm/s
Cc1ccc2[nH]c(C(=O)N[C@H]3CCN(S(=O)(=O)c4ccccc4Cl)C[C@@H]3C(=O)N[C@H]3CCCN(C)C3)cc2c1	3.1	0.27 ×10⁻⁶ cm/s	Papp B→A [2]: 15.9 ×10⁻⁶ cm/s
Cc1ccc2[nH]c(C(=O)N[C@H]3CN(S(=O)(=O)c4cccnc4)C[C@@H]3C(=O)NCCN(C)C)cc2c1	1.4	–	–
Cc1ccc2[nH]c(C(=O)N[C@H]3CN(S(=O)(=O)c4ccccc4)C[C@@H]3C(=O)NC[C@H]3CCCN3C)cc2c1	2.3	0.08 ×10⁻⁶ cm/s	Papp B→A [2]: 2.7 ×10⁻⁶ cm/s
Cc1ccc2[nH]c(C(=O)N[C@H]3CN(S(=O)(=O)c4ccccc4)C[C@@H]3C(=O)NC[C@H]3CCCN3)cc2c1	1	0.11 ×10⁻⁶ cm/s	Papp B→A [2]: 15.9 ×10⁻⁶ cm/s
Cc1csc(C(=O)N[C@H]2CN(S(=O)(=O)c3ccccc3)C[C@@H]2C(=O)N[C@H]2CCCNC2)n1	0.1	0.18 ×10⁻⁶ cm/s	–
Cc1ccc2[nH]c(C(=O)N[C@H]3CN(S(=O)(=O)c4ccccc4)C[C@@H]3C(=O)N[C@H]3CCCNC3)cc2c1	1.3	0.04 ×10⁻⁶ cm/s	Papp B→A [2]: 2 ×10⁻⁶ cm/s
Cc1ccc2[nH]c(C(=O)N[C@@H]3CN(S(=O)(=O)c4ccccc4)C[C@H]3C(=O)NCCN(C)C)cc2c1	2.1	–	–
Cc1ccc2[nH]c(C(=O)N[C@H]3CN(S(=O)(=O)c4ccccc4)C[C@@H]3C(=O)N[C@@H]3CCCNC3)cc2c1	1.3	0.04 ×10⁻⁶ cm/s	Papp B→A [2]: 1.6 ×10⁻⁶ cm/s
Cc1ccc2[nH]c(C(=O)N[C@H]3CCN(C(=O)c4cccnc4)C[C@@H]3C(=O)NCCN(C)C)cc2c1 (racemic)	0.7	–	–
Cc1ccc2[nH]c(C(=O)N[C@H]3CN(S(=O)(=O)c4ccccc4)C[C@H]3C(=O)NCCN(C)C)cc2c1 (racemic)	2.3	–	–

The next lines start with results.

logD [1]	Papp A→B [3]	Compound	further results
0.7	–	Cc1ccc2[nH]c(C(=O)N[C@H]3CN(S(=O)(=O)c4ccnnc4)C[C@@H]3C(=O)NCCN(C)C)cc2c1	–
2.3	–	Cc1ccc2[nH]c(C(=O)N[C@H]3CCN(S(=O)(=O)N4CCCCC4)C[C@@H]3C(=O)NCCN(C)C)cc2c1	–
1	–	Cc1ccc2[nH]c(C(=O)N[C@H]3CN(S(=O)(=O)C4CCOCC4)C[C@@H]3C(=O)NCCN(C)C)cc2c1	–
1.2	–	Cc1ccc2[nH]c(C(=O)N[C@H]3CCN(S(=O)(=O)N(C)C)C[C@@H]3C(=O)NCCN(C)C)cc2c1	–
1.4	–	Cc1ccc2[nH]c(C(=O)N[C@H]3CN(S(=O)(=O)c4cn(C)nc4C)C[C@@H]3C(=O)NCCN(C)C)cc2c1	–
2.2 to 2.3	–	Cc1ccc2[nH]c(C(=O)N[C@H]3CCN(S(=O)(=O)c4ccccc4)C[C@@H]3C(=O)NCCN(C)C)cc2c1	–
2.3	–	Cc1ccc2[nH]c(C(=O)N[C@@H]3CCN(S(=O)(=O)c4ccccc4)C[C@H]3C(=O)NCCN(C)C)cc2c1	–
1	–	Cc1ccc2[nH]c(C(=O)N[C@H]3CCN(S(=O)(=O)C4CC4)C[C@@H]3C(=O)NCCN(C)C)cc2c1	–
1	–	Cc1ccc2[nH]c(C(=O)N[C@H]3CCN(S(=O)(=O)N4CCOCC4)C[C@@H]3C(=O)NCCN(C)C)cc2c1 (racemic)	–
1.3	–	Cc1ccc2[nH]c(C(=O)N[C@H]3CCN(S(=O)(=O)c4cccnc4)C[C@@H]3C(=O)NCCN(C)C)cc2c1 (racemic)	–
1.9	–	Cc1ccc2[nH]c(C(=O)N[C@H]3CN(S(=O)(=O)c4ccccc4)CC[C@H]3C(=O)NCCN(C)C)cc2c1 (racemic)	–
2.1	–	Cc1ccc2[nH]c(C(=O)N[C@@H]3CCN(S(=O)(=O)c4ccccc4)C[C@@H]3C(=O)NCCN(C)C)cc2c1 (racemic)	–
1.9	–	Cc1ccc2[nH]c(C(=O)N[C@H]3CN(S(=O)(=O)c4ccccc4)CC[C@@H]3C(=O)NCCN(C)C)cc2c1 (racemic)	–
